Patent publication EP1092427B1, “Use of a peptide avoiding skin intolerance reactions, especially in cosmetic compositions” (L'ORÉAL, priority 1999, dated 2007)
Non-standard residues stand in square brackets, D forms with d. Residues, ends and D or L forms follow the SMILES beside them.

Experiments:
souris femelles Balb/C [1] = experiment: TNCB contact hypersensitivity in mice, peptide injected intravenously before sensitisation (ear swelling); assay type: in vivo
Protocol: (§1) L'étude est effectuée sur des souris femelles Balb/C âgées de 7 à 10 semaines.
On injecte une dose de 1,5 µg du peptide étudié (en solution dans du tampon PBS contenant 0,1 % de sérum de souris) dans une veine de la queue des souris 2 heures avant la réaction de sensibilisation.
(§2) La réaction de sensibilisation consiste à appliquer au pinceau 100 µl d'une solution à 0,15 % de TNCB dans un mélange acétone-huile d'olive (4:1) sur la peau rasée de l'abdomen des souris.
(§3) La réaction déclenchante est réalisée 7 jours après la réaction de sensibilisation. Cette réaction déclenchante consiste à appliquer sur les deux faces d'une oreille 10 microlitres d'une solution à 0,8 % de TNCB dans un véhicule constitué par le mélange acétone-huile d'olive déjà mentionné ci-dessus.
(§4) Sur l'autre oreille, on applique, pour comparaison, uniquement ce mélange d'acétone et d'huile d'olive.
(§5) On évalue l'intensité d'une éventuelle réaction d'hypersensibilité de contact par estimation de l'importance de l'oedème de l'oreille traitée par le TNCB, en comparaison avec l'oreille traitée par le seul véhicule. Pour cela, on mesure et compare l'épaisseur des oreilles à l'aide d'une vis micrométrique. Cette mesure est effectuée 24 heures après la réaction déclenchante.
On applique également le TNCB sur l'oreille de souris témoins n'ayant pas été préalablement sensibilisée (témoins négatifs). […]

souris femelles Balb/C [2] = experiment: TNCB contact hypersensitivity in mice after a second sensitisation (tolerance test, ear swelling); assay type: in vivo
Excerpt: 14 jours après la fin de l'expérience décrite en a) ci-dessus, on soumet les mêmes souris à une nouvelle réaction de sensibilisation sur la peau rasée du dos, comme décrit en a).
7 jours plus tard, on effectue le test de déclenchement par application du TNCB sur l'oreille, et 24 heures plus tard, on mesure le degré de gonflement de l'oreille.
Cette seconde expérience a pour but de faire une distinction entre une éventuelle immunosuppression temporaire aspécifique et une tolérance immunologique spécifique.

souris femelles Balb/C [3] = experiment: TNCB contact hypersensitivity in mice, peptide applied topically in a water-in-oil cream (ear swelling); assay type: in vivo; details: peptide in water-in-oil cream applied on the zone to be sensitised 2 h before sensitisation; measured 24 h after challenge; positive controls 7×10^-2 mm
Protocol: as §1, §2, §3, §4, §5
On opère comme en a) ci-dessus, mais le peptide, incorporé dans une crème de type eau-dans-l'huile, est appliqué sur la zone à sensibiliser 2 heures avant la sensibilisation.

patients volontaires = experiment: Topical effect in human volunteers with nickel contact allergy (nickel sulfate patch test); assay type: in vivo, homme; details: out of 14 nickel-sensitised persons; cream with 100 µM peptide under occlusive dressing on back skin 2 h before 5 % nickel sulfate patch; read 24 h later
Protocol: Cette étude a été effectuée sur des patients volontaires âgés de 18 à 65 ans, chez lesquels une allergie de contact au nickel était suspectée. Ces patients étaient exempts d'autres maladies cutanées, et les résultats de cette étude montrent qu'ils n'avaient pas d'allergie aux constituants de la crème utilisée comme véhicule.
Au jour 0, on applique avec un pansement occlusif, sur des zones de la peau du dos, d'une part une crème contenant 100 µM du peptide de formule II, et d'autre part la crème seule, sans peptide, utilisée comme placebo.
Deux heures plus tard, on applique sur les mêmes zones de la peau, et aussi sur une zone adjacente non prétraitée, des patchs imprégnés de vaseline contenant du sulfate de nickel à une concentration de 5 %.
24 heures plus tard, on examine les patients. Ceux qui ont développé une réaction d'hypersensibilité de contact sur la zone traitée par le placebo (et aussi sur la zone adjacente n'ayant reçu que l'application de sel de nickel), et qui sont donc des personnes qui étaient déjà sensibilisées au nickel, sont au nombre de 14. Sur ces 14 personnes, 7 n'ont développé aucune réaction d'hypersensibilité de contact sur la zone traitée par le peptide.

CC(=O)N[C@H](CCCCN)C(=O)N1CCC[C@@H]1C(=O)N[C@@H](C(N)=O)C(C)C [peptide de formule II, Ac-D-Lys-D-Pro-D-Val-NH2] (Ac-[dK]-[dP]-[dV]-NH2)
réaction d'hypersensibilité de contact (result in words) (souris femelles Balb/C [1]; 1,5 µg peptide i.v. 2 h before TNCB sensitisation): réduit fortement la réaction d'hypersensibilité de contact
augmentation de l'épaisseur de l'oreille (souris femelles Balb/C [1]; 1,5 µg peptide i.v. (tail vein) 2 h before sensitisation with 0,15 % TNCB, challenge day 7 with 0,8 % TNCB on ear, measured 24 h after challenge, ^-2 mm, negative controls about 1×10^-2 mm): ~2,5×10^-2 mm
hypersensibilité de contact après une seconde dose sensibilisante de TNCB (result in words) (souris femelles Balb/C [2]; mice treated with peptide before the first sensitisation only): n'ont pas développé une hypersensibilité de contact
degré de gonflement de l'oreille (souris femelles Balb/C [2]; same mice re-sensitised with TNCB on the back 14 days after first experiment, no new peptide dose, challenge 7 days later, measured 24 h later, positive controls about 14×10^-2 mm, negative controls about 3,5×10^-2 mm): ~3,5×10^-2 mm
augmentation de l'épaisseur de l'oreille (souris femelles Balb/C [3]): 3×10^-2 mm
personnes n'ayant développé aucune réaction d'hypersensibilité de contact sur la zone traitée par le peptide (patients volontaires): 7
